This assay has as its system ET (Huh-lucubineo-ET) cell line harboring I389luc-ubi-neo/NS3-3′/ET HCV replicon. The assay is described as follows: Replicon assay (HCV replicon, luciferase readout). The assay is classed as cell-based. The settings on record: Hepatitis C virus. Summed up: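 Compounds at 10-point 2-fold dilutions (overall 0.1 nM to […], 0.5% DMSO) were applied to ET cells carrying a luciferase-neo HCV replicon, seeded a day earlier. After 48-72 hours, luciferase-based % inhibition was fitted with a Hill equation for EC50, and parallel WST-1 readings gave TC50.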

This passage reports EC50 results from patent US20100204265A1 (priority 2009, published 2010).

Bounds are passed on as bounds.

On to `O=C(c1nc2c(C(F)(F)F)cc(-c3ccoc3)cn2c1Cl)N1CC=C(c2ccccn2)CC1` [Compound 210, (3-Chloro-6-furan-3-yl-8-trifluoromethyl-imidazo[1,2-a]pyridin-2-yl)-(3′,6′-dihydro-2′H-[2,4′]bipyridinyl-1′-yl)-methanone], for which a half-maximal response (EC50) required 0.481 µM.

The compound `N#Cc1cccnc1C1=CCN(C(=O)c2nc3c(C(F)(F)F)cc(-c4ccoc4)cn3c2Cl)CC1` [Compound 211, 1′-(3-Chloro-6-furan-3-yl-8-trifluoromethyl-imidazo[1,2-a]pyridine-2-carbonyl)-1′,2′,3′,6′-tetrahydro-[2,4′]bipyridinyl-3-carbonitrile] had an EC50 of 1.48 µM.

`O=C(c1nc2c(C(F)(F)F)cc(-c3ccoc3)cn2c1Cl)N1CC=C(/C=C/C2CC2)CC1` [Compound 212, (3-Chloro-6-furan-3-yl-8-trifluoromethyl-imidazo[1,2-a]pyridin-2-yl)-[4-(2-cyclopropyl-vinyl)-3,6-dihydro-2H-pyridin-1-yl]-methanone] yielded an EC50 of 0.338 µM.

For the compound `O=C(c1nc2c(C(F)(F)F)cc(-c3ccoc3)cn2c1Cl)N1CC=C(C2=CCNC2)CC1` [Compound 213, (3-Chloro-6-furan-3-yl-8-trifluoromethyl-imidazo[1,2-a]pyridin-2-yl)-[4-(2,5-dihydro-1H-pyrrol-3-yl)-3,6-dihydro-2H-pyridin-1-yl]-methanone], the EC50 is 0.942 µM.

Compound `O=C(c1nc2c(C(F)(F)F)cc(-c3ccccc3)cn2c1Cl)N1CC=C(c2nccs2)C1` [Compound 215, (3-Chloro-6-phenyl-8-trifluoromethyl-imidazo[1,2-a]pyridin-2-yl)-(3-thiazol-2-yl-2,5-dihydro-pyrrol-1-yl)-methanone] had an EC50 of 0.0322 µM.

`O=C(c1nc2c(C(F)(F)F)cc(-c3cccnc3)cn2c1Cl)N1CC=C(c2nccs2)C1` [Compound 216, (3-Chloro-6-pyridin-3-yl-8-trifluoromethyl-imidazo[1,2-a]pyridin-2-yl)-(3-thiazol-2-yl-2,5-dihydro-pyrrol-1-yl)-methanone] registered an EC50 of 0.111 µM.

The compound `O=C(c1nc2c(C(F)(F)F)cc(C3=CCCCC3)cn2c1Cl)N1CC=C(c2nccs2)C1` [Compound 217, (3-Chloro-6-cyclohex-1-enyl-8-trifluoromethyl-imidazo[1,2-a]pyridin-2-yl)-(3-thiazol-2-yl-2,5-dihydro-pyrrol-1-yl)-methanone] had an EC50 of 0.0505 µM.

Compound `O=C(c1nc2c(C(F)(F)F)cc(C3=CCNCC3)cn2c1Cl)N1CC=C(c2nccs2)C1` [Compound 218, [3-Chloro-6-(1,2,3,6-tetrahydro-pyridin-4-yl)-8-trifluoromethyl-imidazo[1,2-a]pyridin-2-yl]-(3-thiazol-2-yl-2,5-dihydro-pyrrol-1-yl)-methanone] returned an EC50 of 2 µM.

In turn, `O=C(c1nc2c(C(F)(F)F)cc(-c3ccoc3)cn2c1Cl)N1CCC(c2ncccc2F)CC1` [Compound 219, (3-Chloro-6-furan-3-yl-8-trifluoromethyl-imidazo[1,2-a]pyridin-2-yl)-(3-fluoro-3′,4′,5′,6′-tetrahydro-2′H-[2,4′]bipyridinyl-1′-yl)-methanone] showed a half-maximal effective concentration (EC50) of 0.0651 µM.

Compound `N#CC1(c2ncccc2F)CCN(C(=O)c2nc3c(C(F)(F)F)cc(-c4ccoc4)cn3c2Cl)CC1` [Compound 220, 1′-(3-Chloro-6-furan-3-yl-8-trifluoromethyl-imidazo[1,2-a]pyridine-2-carbonyl)-3-fluoro-2′,3′,5′,6′-tetrahydro-1′H-[2,4′]bipyridinyl-4′-carbonitrile] came in with a concentration for a half-maximal effect (EC50) of 0.777 µM.

In turn, `N#CC1(c2cccs2)CCN(C(=O)c2nc3c(C(F)(F)F)cc(-c4ccoc4)cn3c2Cl)CC1` [Compound 221, 1-(3-Chloro-6-furan-3-yl-8-trifluoromethyl-imidazo[1,2-a]pyridine-2-carbonyl)-4-thiophen-2-yl-piperidine-4-carbonitrile] registered an EC50 of 0.0455 µM.

`O=C(c1nc2c(C(F)(F)F)cc(-c3ccoc3)cn2c1Cl)N1CCC(O)(c2ncccc2F)CC1` [Compound 222, (3-Chloro-6-furan-3-yl-8-trifluoromethyl-imidazo[1,2-a]pyridin-2-yl)-(3-fluoro-4′-hydroxy-3′,4′,5′,6′-tetrahydro-2′H-[2,4′]bipyridinyl-1′-yl)-methanone] gave an EC50 of 0.624 µM.

In the case of `O=C(c1nc2c(C(F)(F)F)cc(-c3ccoc3)cn2c1Cl)N1CCC(F)(c2ncccc2F)CC1` [Compound 223, (3-Chloro-6-furan-3-yl-8-trifluoromethyl-imidazo[1,2-a]pyridin-2-yl)-(3,4′-difluoro-3′,4′,5′,6′-tetrahydro-2′H-[2,4′]bipyridinyl-1′-yl)-methanone], the half-maximal effective concentration (EC50) is 0.657 µM.

As to `O=C(c1nc2c(C(F)(F)F)cc(-c3ccoc3)cn2c1Cl)N1CCC(O)(c2nccs2)CC1` [Compound 224, (3-Chloro-6-furan-3-yl-8-trifluoromethyl-imidazo[1,2-a]pyridin-2-yl)-(4-hydroxy-4-thiazol-2-yl-piperidin-1-yl)-methanone], the midpoint of the response, the EC50, lay at 3.5 µM.

Consider `CC(C)CCC1CCN(C(=O)c2nc3c(C(F)(F)F)cc(-c4ccoc4)cn3c2Cl)CC1` [Compound 225, (3-Chloro-6-furan-3-yl-8-trifluoromethyl-imidazo[1,2-a]pyridin-2-yl)-[4-(3-methyl-butyl)-piperidin-1-yl]-methanone], for which the half-maximal effective concentration (EC50) worked out at 2.29 µM.

For the compound `O=C(NCc1cn2cc(-c3ccoc3)cc(C(F)(F)F)c2n1)C1CC1` [Compound 226, Cyclopropanecarboxylic acid (6-furan-3-yl-8-trifluoromethyl-imidazo[1,2-a]pyridin-2-ylmethyl)-amide], the concentration giving a half-maximal response (EC50) was over 50 µM.

`O=S(=O)(NCc1cn2cc(-c3ccoc3)cc(C(F)(F)F)c2n1)C1CC1` [Compound 227, Cyclopropanesulfonic acid (6-furan-3-yl-8-trifluoromethyl-imidazo[1,2-a]pyridin-2-ylmethyl)-amide] gave a concentration giving a half-maximal response (EC50) of over 50 µM.

`FC(F)(F)c1cc(-c2ccoc2)cn2cc(Cn3cnc(-c4ccccc4)c3)nc12` [Compound 228, 6-Furan-3-yl-2-(4-phenyl-imidazol-1-ylmethyl)-8-trifluoromethyl-imidazo[1,2-a]pyridine] had an EC50 of over 50 µM.

Consider `FC(F)(F)c1cc(-c2ccoc2)cn2cc(Cc3nc(-c4ccccc4)no3)nc12` [Compound 229, 6-Furan-3-yl-2-(3-phenyl-[1,2,4,]oxadiazol-5-ylmethyl)-8-trifluoromethyl-imidazo[1,2-a]pyridine], for which the EC50 is over 50 µM.

The compound `FC(F)(F)c1cc(-c2ccoc2)cn2cc(Cc3nc(Cc4ccccc4)no3)nc12` [Compound 230, 2-(3-Benzyl-[1,2,4]oxadiazol-5-ylmethyl)-6-furan-3-yl-8-trifluoromethyl-imidazo[1,2-a]pyridine] showed an EC50 of over 50 µM.

Compound `FC(F)(F)c1cc(-c2ccoc2)cn2cc(Cc3nc(COc4ccccc4)no3)nc12` [Compound 231, 6-Furan-3-yl-2-(3-phenoxymethyl-[1,2,4]oxadiazol-5-ylmethyl)-8-trifluoromethyl-imidazo[1,2-a]pyridine] came in with an EC50 of over 50 µM.

Regarding `CC(C)CS(=O)(=O)NCc1cn2cc(-c3ccoc3)cc(C(F)(F)F)c2n1` [Compound 232, 2-Methyl-propane-1-sulfonic acid (6-furan-3-yl-8-trifluoromethyl-imidazo[1,2-a]pyridin-2-ylmethyl)-amide], the 50% effective concentration (EC50) was over 50 µM.

`CCOCCOC1CCN(C(=O)c2nc3c(C(F)(F)F)cc(-c4cn[nH]c4)cn3c2Cl)C1` (centres unmarked) [Compound 233, [3-Chloro-6-(1H-pyrazol-4-yl)-8-trifluoromethyl-imidazo[1,2-a]pyridin-2-yl]-[3-(2-ethoxy-ethoxy)-pyrrohdin-1-yl]-methanone] yielded a half-maximal effective concentration (EC50) of over 50 µM.

For `O=C1c2ccccc2C(=O)N1Cc1cn2cc(-c3ccoc3)cc(C(F)(F)F)c2n1` [Compound 234, 2-(6-Furan-3-yl-8-trifluoromethyl-imidazo[1,2-a]pyridin-2-ylmethyl)-isoindole-1,3-dione], the EC50 is over 50 µM.

On to `Clc1ccc(Cn2c(CN3CCCC3)nc3ccccc32)cc1` [Compound 235, 1-(4-Chloro-benzyl)-2-pyrrolidin-1-ylmethyl-1H-benzoimidazole], for which the midpoint of the response, the EC50, lay at 40.2 µM.

Take `N#CCc1cn2cc(-c3ccoc3)cc(C(F)(F)F)c2n1` [Compound 236, (6-Furan-3-yl-8-trifluoromethyl-imidazo[1,2-a]pyridin-2-yl)-acetonitrile]: the concentration giving a half-maximal response (EC50) is over 50 µM.

Regarding `NC(=O)C1CCCN1C(=O)c1nc2c(C(F)(F)F)cc(-c3ccoc3)cn2c1Cl` (centres unmarked) [Compound 237, 1-(3-Chloro-6-furan-3-yl-8-trifluoromethyl-imidazo[1,2-a]pyridine-2-carbonyl)-pyrrolidine-2-carboxylic acid amide], the concentration giving a half-maximal response (EC50) was over 50 µM.

For `CN(C)CC(=O)NCc1cn2cc(-c3ccoc3)cc(C(F)(F)F)c2n1` [Compound 239, 2-Dimethylamino-N-(6-furan-3-yl-8-trifluoromethyl-imidazo[1,2-a]pyridin-2-ylmethyl)-acetamide], the half-maximal effective concentration (EC50) was over 50 µM.

Compound `CC(=O)NCC(=O)NCc1cn2cc(-c3ccoc3)cc(C(F)(F)F)c2n1` [Compound 240, 2-Acetylamino-N-(6-furan-3-yl-8-trifluoromethyl-imidazo[1,2-a]pyridin-2-ylmethyl)-acetamide] showed a half-maximal effective concentration (EC50) of over 50 µM.

As to `CC(C)CC(N)C(=O)NCc1cn2cc(-c3ccoc3)cc(C(F)(F)F)c2n1` (centres unmarked) [Compound 241, 2-Amino-4-methyl-pentanoic acid (6-furan-3-yl-8-trifluoromethyl-imidazo[1,2-a]pyridin-2-ylmethyl)-amide], the EC50 was over 50 µM.

The compound `CC(C)(C)OC(=O)NCCc1cn2cc(-c3ccoc3)cc(C(F)(F)F)c2n1` [Compound 242, [2-(6-Furan-3-yl-8-trifluoromethyl-imidazo[1,2-a]pyridin-2-yl)-ethyl]-carbamic acid tert-butyl ester] came in with an EC50 of over 50 µM.

`CC(=O)NC(CC(C)C)C(=O)NCc1cn2cc(-c3ccoc3)cc(C(F)(F)F)c2n1` (centres unmarked) [Compound 243, 2-Acetylamino-4-methyl-pentanoic acid (6-furan-3-yl-8-trifluoromethyl-imidazo[1,2-a]pyridin-2-ylmethyl)-amide] yielded an EC50 of over 50 µM.
